Test system: HeLa cells
Assay: Comet assay (DNA damage), HeLa
Format: cell-based, human
Parameters: Olive Tail Moment (Mean) / Tail Moment (Mean): unit not given here
Conditions: for percentage of tail DNA and tail moment: 10 μM, 1, 3, 6, 12 h; for Olive Tail Moment (Mean) / Tail Moment (Mean) / %Tail DNA (Mean): 10 µM; for Olive Tail Moment (Mean): control 5.539; for Tail Moment (Mean): control 9.081; for %Tail DNA (Mean): control 28.414, alkaline electrophoresis, Vista Green
Procedure: The DNA damage assay was performed using a comet assay kit 96-well plate (Cell Bio Labs, CA, USA) as per the manufacturer’s instructions. Briefly, the cell suspension was mixed with the low-melting agarose at 1:20 ratio and added to the pre-coated 96 well plate. The cells were then subjected to lysis for 1 h, followed by alkaline electrophoresis. The plate was then washed in 70% ethanol and Vista Green DNA dye was added. The comets were visualized in Zeiss LSM780 Confocal microscope. The images were processed using Zeiss ZEN lite software and the comet parameters were measured using Open comet software.
Adriamycin is well known to induce DNA damage. Given the critical role of CARP-1 in apoptotic signaling by Adriamycin and CFM compounds, and the fact that stress-activated protein kinases (SAPKs) p38 and JNKs are activated in apoptosis signaling by CFM-4.16 [6, 12, 13, 14, 15, 16, 17, 18], we next determined whether CFM-4.16 also provoked DNA damage. We treated MDA-MB-468 and HeLa cells with a 10 μM dose of Adriamycin or CFM-4.16 for 1, 3, 6, and 12 h, followed by assessment of damaged DNA by the comet assay as described in Section 2. The presence of comet-like tails that contain the fragmented cellular DNA is a well-known marker/indicator of apoptosis. We measured the comet parameters such as percentage tail DNA and mean tail moment. […] Of note is the fact that Adriamycin and related anthracyclines intercalate between DNA bases and trap topoisomerase II (TopoII) in the double-strand cleavage form, thus introducing double-strand breaks (DSBs) due to TopoII poisoning. It remains to be clarified whether CFM-4.16 also targets cellular DNA and/or the associated DNA repair complex protein(s) to introduce DNA strand breaks, or activates caspase-activated DNAses to breakdown cellular genomic DNA.
Figure 2 Adriamycin and CFM-4.16 induce DNA damage. Cells were treated with the noted dose of respective compound for indicated time periods. Mean values for percentage tail DNA content (A,C) and Olive tail moment (B,D) for respective cells from control and treatment periods for each compound were measured using software recommended by the manufacturer of the kit for measurement of DNA damage (Cell Bio Labs, CA, USA). The columns in each chart indicate average values for respective treatment condition; bars, SE; * p ≤ 0.05.
Table S1. Adriamycin and CFM-4.16 stimulate DNA Damage in a time-dependent manner. MDA-MB-468 and HeLa cells were with noted dose of respective compound for indicated time periods.
Mean values for % tail DNA, Tail moment, and Olive tail moment for respective cells from control and treatment periods for each compound were measured using software recommended by the manufacturer of the kit for measurement of DNA damage (Cell Bio Labs, San Diego, CA, USA). The p values for each of the parameter are indicated below the mean values in each column for the treatment time period with each compound for both the cell lines.
Adriamycin (10 µM) CFM-4.16 (10 µM)

Compound | percentage of tail DNA and tail moment | Olive Tail Moment (Mean) (1 h) | Tail Moment (Mean) (1 h) | %Tail DNA (Mean) (1 h) | Olive Tail Moment (Mean) (3 h) | Tail Moment (Mean) (3 h) | %Tail DNA (Mean) (3 h) | Olive Tail Moment (Mean) (6 h) | Tail Moment (Mean) (6 h) | %Tail DNA (Mean) (6 h) | Olive Tail Moment (Mean) (12 h) | Tail Moment (Mean) (12 h) | %Tail DNA (Mean) (12 h)
COc1cccc2c1C(=O)c1c(O)c3c(c(O)c1C2=O)C[C@@](O)(C(=O)CO)C[C@@H]3O[C@H]1C[C@H](N)[C@H](O)[C@H](C)O1 [Adriamycin, doxorubicin, reference compound] | significantly increased | 18.8 | 32.09 | 40.8% | 39.9 | 61.8 | 76.74% | 47.9 | 79.11 | 84.98% | 60.49 | 102.2 | 93.4%
O=C1N(Cc2ccccc2Cl)c2ccccc2C12NN=C(c1cccc(Cl)c1)S2 (centres unmarked) [CFM-4.16] | significantly increased | 10.9 | 16.526 | 27.297% | 15.4 | 26.7 | 34.45% | 32.73 | 47.54 | 53.24% | 41.02 | 76.03 | 69.61%

From article PMC6406907, “A H2AX–CARP-1 Interaction Regulates Apoptosis Signaling Following DNA Damage” (Cancers, 2019)
